Measured values as given in EP0973746B1, “SUBSTITUTED 3-CYANO QUINOLINES” (Wyeth Holdings Corporation, priority 1997, dated 1998).
pIC50: −log10 of the molar value. Converted amounts (≈) assume the structure as drawn. “And” between values parts separate entries of the source, which are not always exact repeats. Equal entries are not always repeated. Where two headings read alike, the source gives them in different places.

Experiments:
[1] = test system: SKBR3; assay: Inhibition of cancer cell growth as measured by cell number, SKBR3; type: cell-based, human; details: Table 8; for IC50: Homo sapiens;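 as to all read-outs here: SK-BR-3 cells were selected as a line overexpressing HER2/neu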
Excerpt: (§1) The cell lines were chosen since they overexpressed epidermal growth factor receptor (EGFR) (i.e. A431) or HER2/neu (SKBR3), or had little to no expression of the these receptors (SW620, LOX, MCF7).

[2] = test system: A431; assay: Inhibition of cancer cell growth as measured by cell number, A431; type: cell-based, human; details: Homo sapiens, A-431, 48 h, Table 8;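 also: human A431 line, picked because it overexpresses epidermal growth factor receptor (EGFR)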
Excerpt: as §1

[3] = test system: SW620; assay: Inhibition of cancer cell growth as measured by cell number, SW620; type: cell-based, human; details: Table 8; for IC50: Homo sapiens, SW-620, 48 h;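 as to all read-outs here: SW620 was included as a cell line with little or no EGFR or HER2/neu expression, in contrast to receptor-overexpressing lines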
Excerpt: as §1

[4] = biological target: recombinant human MEK 1 (MAPKK) and recombinant human ERK2 (MAPK); assay: Mitogen Activated Protein Kinase (MAPK) assay, two component coupled MEK 1 / ERK2; type: biochemical; details: separate entries for the same compound = evaluated more than one time;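 also: MEK 1-activated ERK2 phosphorylates MBP or Myc peptide with 33P-ATP, filter capture and scintillation counting, inhibitor preincubated with ERK2 30 min at 0 °C, inhibition relative to uninhibited control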
[5] = biological target: T1, His-tagged cytoplasmic domain of EGFR (Homo sapiens, UniProt P00533); assay: Inhibition of Epidermal Growth Factor Receptor Kinase (EGF-R) using recombinant enzyme; type: biochemical; details: recombinant enzyme; RR-SRC peptide; average of the number of tests; read-out: IC50;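 also: radiometric kinase assay measuring radiolabeled phosphate transfer from ATP onto the peptide tyrosine by scintillation counting, control is reaction without compound, background subtracted, IC50 from dose-response curve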
T1 construct: containing the EGFR cDNA encoding amino acids 645 - 1186 preceded by Met-Ala-(His)6; made in house; host or cells: Sf9 cells, recombinant baculovirus vHcEGFR52
T1 sequence (P00533 669-1210): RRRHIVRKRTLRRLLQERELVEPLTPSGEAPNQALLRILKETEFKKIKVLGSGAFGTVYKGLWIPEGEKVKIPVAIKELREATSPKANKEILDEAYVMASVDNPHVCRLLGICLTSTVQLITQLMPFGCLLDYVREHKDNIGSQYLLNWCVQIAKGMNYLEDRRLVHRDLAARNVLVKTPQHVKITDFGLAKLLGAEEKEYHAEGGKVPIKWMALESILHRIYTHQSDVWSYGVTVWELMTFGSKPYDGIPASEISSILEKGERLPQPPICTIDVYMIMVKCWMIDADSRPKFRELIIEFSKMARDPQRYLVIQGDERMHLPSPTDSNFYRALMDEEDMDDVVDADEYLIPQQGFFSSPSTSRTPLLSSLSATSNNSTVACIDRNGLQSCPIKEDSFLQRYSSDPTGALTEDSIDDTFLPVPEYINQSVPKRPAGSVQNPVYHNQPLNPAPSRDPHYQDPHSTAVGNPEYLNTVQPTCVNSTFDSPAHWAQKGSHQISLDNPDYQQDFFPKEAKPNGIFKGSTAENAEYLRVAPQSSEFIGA
Protocol: The enzyme used in this assay is the His-tagged cytoplasmic domain of EGFR.
Compounds to be evaluated were made into 10 mg/mL stock solutions in 100% dimethylsulfoxide (DMSO). Prior to experiment, stock solutions were diluted to 500 µM with 100% DMSO and then serially diluted to the desired concentration with HEPES buffer (30 mM HEPES pH 7.4).
For the enzyme reaction, 10 µL of each inhibitor (at various concentrations) were added to each well of a 96-well plate. […] This was allowed to sit for 10 min on ice and was followed by the addition of 5 µl peptide (80 µM final conc.), 10µl of 4X Buffer (Table A), 0.25 µL ^33P-ATP and 12 µL H2O. The reaction was allowed to run for 90 min at room temperature and was followed by spotting the entire volume on to precut P81 filter papers. The filter discs were washed 2X with 0.5% phosphoric acid and radioactivity was measured using a liquid scintillation counter.
The % inhibition of the test compound was determined for at least three different concentrations and the IC50 value was evaluated from the dose response curve. […] CPM(control) is in units of counts per minute and was a number expressing the amount of radiolabeled ATP (g-33P) incorporated into the RR-SRC peptide substrate by the enzyme after 90 minutes at room temperature in the absence of test compound as measured by liquid scintillation counting. The CPM values were corrected for the background counts produced by ATP in the absence of the enzymatic reaction. The IC50 values reported in TABLE 2 are averages of the number of tests conducted.

[6] = test system: human epidermoid tumors (A431); assay: In vivo inhibition of the growth of human epidermoid tumors (A431); details: Table 11; for S/T = No. Survivors/No. Treated: Day +28 post tumor staging
Protocol: Representative compounds of this invention (listed below) were evaluated in an in vivo standard pharmacological test procedure which measured its ability to inhibit the growth of human epidermoid tumors. […] BALB/c nu/nu female mice (Charles River, Wilmington, MA) were used in this in vivo standard pharmacological test procedure. A unit of 5 X 10^6 cells were injected SC into mice. When tumors attained a mass of between 100 and 150 mg, the mice were randomized into treatment groups (day zero). […] Control animals received no drug. Tumor mass was determined every 7 days [(length X width^2)/2] for 28 days post staging. Relative tumor growth (Mean tumor mass on days 7, 14, 21, and 28 divided by the mean tumor mass on day zero) is determined for each treatment group.

[7] = SK-BR-3, cell number, Sulforhodamine B, 48 hours exposure, read-out: IC50 SKBR3
[8] = cell number, Sulforhodamine B, 48 hours exposure, read-out: IC50 A431
[9] = cell number, Sulforhodamine B, 48 hours exposure, read-out: IC50 SW620
[10] = cell number, Sulforhodamine B, 48 hours exposure
[11] = SK-BR-3, 48 h, read-out: IC50 SKBR3, cell number, Sulforhodamine B, 48 hours exposure
[12] = read-out: IC50 SW620, cell number, Sulforhodamine B, 48 hours exposure
[13] = 80 mg/kg/dose IP on days 1,5 and 9
[14] = 80 mg/kg/dose PO on days 1 through 10

SMILES | pIC50 [4] | pIC50 [5] | other results
CCOc1cc2ncc(C#N)c(NCc3cccc(Br)c3)c2cc1OCC [Example 61, 4-(3-Bromophenylmethylamino)-6,7-diethoxy-3-quinolinecarbonitrile] | < 4.00 |  | IC50 [1, 7]: 1.09 µg/mL (≈ 2.57 µM); IC50 [2, 8]: 0.341 µg/mL (≈ 0.8 µM); IC50 [3, 9]: 1.07 µg/mL (≈ 2.5 µM)
CCOc1cc2ncc(C#N)c(NCc3ccccc3)c2cc1OCC [Example 62, 4-(3-Phenylmethylamino)-6,7-diethoxy-3-quinolinecarbonitrile] |  |  | IC50 SKBR3 [1, 10]: 0.3 µg/mL (≈ 0.864 µM); IC50 SW620 [3, 10]: 0.3 µg/mL (≈ 0.864 µM)
CCOc1cc2ncc(C#N)c(NCc3ccc(Cl)c(Cl)c3)c2cc1OCC [Example 64, 4-(3.4-Dichlorophenylmethylamino)-6,7-diethoxy-3-quinolinecarbonitrile] | 5.52 |  | IC50 SKBR3 [1, 10]: 1.965 µg/mL (≈ 4.72 µM); IC50 SW620 [3, 10]: 1.603 µg/mL (≈ 3.85 µM)
C=CC(=O)Nc1ccc2ncc(C#N)c(Nc3cccc(F)c3)c2c1 [Example 88, N-[3-Cyano-4-(3-fluorophenylamino)quinolin-6-yl]acrylamide] |  | 7.10 | 
C=CC(=O)Nc1cc(CN(C)C)c2ncc(C#N)c(Nc3cccc(Br)c3)c2c1 [Example 111, N-{4-[(3-Bromophenyl)amino]-3-cyano-8-dimethylaminomethyl-6-quinolinyl}-2-propenamide] |  |  | IC50 [1, 7]: 3.32 µg/mL (≈ 7.38 µM); IC50 [2, 8]: 3.05 µg/mL (≈ 6.76 µM); IC50 [3, 9]: 2.02 µg/mL (≈ 4.48 µM)
CC(=O)Nc1cc(CN(C)C)c2ncc(C#N)c(Nc3cccc(Br)c3)c2c1 [Example 112, N-{4-[(3-Bromophenyl)amino]-3-cyano-8-dimethylaminomethyl-6-quinolinyl} acetamide] | < 4.00 |  | IC50 [1, 11]: > 5 µg/mL; IC50 ([2]; read-out: IC50 A431, cell number, Sulforhodamine B, 48 hours exposure): > 5 µg/mL; IC50 [3, 12]: > 5 µg/mL
N#Cc1cnc2ccc(N)cc2c1Nc1cccc(I)c1 [Example 130, 6-Amino-4-[(3-iodophenyl)amino]-3-quinolinecarbonitrile] | < 4.00 | 7.00 | 
CC#CC(=O)Nc1ccc2ncc(C#N)c(Nc3cccc(C)c3)c2c1 [Example 132, N-{3-Cyano-4-[(3-methylphenyl)amino]-6-quinolinyl}-2-butynamide] | < 4.00 | 6.22 | 
Cc1cccc(Nc2c(C#N)cnc3ccc(N)cc23)c1 [Example 133, 6-Amino-4-[(3-methylphenyl)amino]-3-quinolinecarbonitrile] | < 4.00 | 8.22 | 
C=CC(=O)Nc1ccc2ncc(C#N)c(Nc3cccc(Cl)c3)c2c1 [Example 135, N-4-[(3-Chlorophenyl)amino]-3-cyano-6-guinolinyl-2-propenarnide] |  | 8.00 | 
CC#CC(=O)Nc1ccc2ncc(C#N)c(Nc3cccc(OC)c3)c2c1 [Example 139, N-{3-Cyano-4-[(3-methoxyphenyl)amino]-6-quinolinyl}-2-butynamide] | 4.46 | 6.30 | 
CC#CC(=O)Nc1ccc2ncc(C#N)c(Nc3ccc(F)c(Cl)c3)c2c1 [Example 143, N-{4-[(3-Chloro-4-fluoro-phenyl)amino]-3-cyano-6-quinolinyl}-2-butynamide] | 4.40 | 7.52 | 
C=C(CN1CCOCC1)C(=O)Nc1ccc2ncc(C#N)c(Nc3ccc(F)c(Cl)c3)c2c1 [Example 148, N-{4-[(3-chloro-4-fluorophenyl)amino]-3-cyano-6-quinolinyl}-2-morpholin-4-ylmethyl-2-propenamide] |  |  | IC50 [1, 11]: 0.043 µg/mL (≈ 0.0923 µM); IC50 [3, 12]: 0.26 µg/mL (≈ 0.558 µM)
N#Cc1cnc2ccc(N)cc2c1Nc1ccc(Br)cc1 [Example 152, 6-Amino-4-[(4-bromophenyl)amino]-3-quinolinecarbonitrile] |  | 7.00 | 
C=C(CN1CCOCC1)C(=O)Nc1ccc2ncc(C#N)c(Nc3cccc(Br)c3)c2c1 [Example 171, N-{4-[(3-Bromophenyl)amino]-3-cyano-6-quinolinyl}-2-morpholin-4-ylmethyl-2-propenamide] |  | 8.19 | 
CCOc1cc2ncc(C#N)c(Nc3cccc(Br)c3)c2cc1NC(=O)C=CCN(C)C [Example 216, 4-Dimethylamino-but-2-enoic acid [4-(3-bromo-phenylamino)-3-cyano-7-ethoxy-quinolin-6-yl]-amide] |  |  | %T/C Day 7 [6, 13]: 14%; %T/C Day 14 [6, 13]: 12%; %T/C Day 21 [6, 13]: 17%; %T/C Day 28 [6, 13]: 19%; S/T = No. Survivors/No. Treated [6, 13]: 5/5; %T/C Day 7 [6, 14]: 6%; %T/C Day 14 [6, 14]: 6%; %T/C Day 21 [6, 14]: 12%; %T/C Day 28 [6, 14]: 21%; S/T = No. Survivors/No. Treated [6, 14]: 5/5; IC50 [1, 11]: 0.012 µg/mL (≈ 0.0243 µM); IC50 SKBR3 [1, 10]: 0.015 µg/mL (≈ 0.0303 µM)
COc1cc(NC(=O)C=CCN(C)C)cc2c(Nc3cccc(Br)c3)c(C#N)cnc12 [Example 224] |  | 6.00 | 

SMILES | pIC50 [4] | pIC50 [5] | other results
CCOc1cc2ncc(C#N)c(Nc3ccc(F)c(Cl)c3)c2cc1OCC [Example 256, 4-(3-Chloro-4-fluorophenylamino)-6,7-diethoxy-3-quinolinecarbonitrile] |  | 7.00 | 
N#Cc1cnc2ccc(NC(=O)/C=C\Cl)cc2c1Nc1cccc(Br)c1 [Example 327, N-[4-(3-Bromo-phenylamino)-3-cyano-quinolin-6-yl]-3-chloro-(Z)-acrylamide] |  | 8.00 | 
COc1cc2ncc(C#N)c(Nc3ccc(Cl)cc3F)c2cc1N [Example 360, 6-Amino-4[(4-Chloro-2-fluorophenyl)amino]-7-methoxy-3-quinolinecarbonitrile] |  | 6.30 | 
COc1cc2ncc(C#N)c(Nc3cccc(O)c3C)c2cc1OC [Example 374, 4-(3-Hydroxy-2-methyl-phenylamino)-6,7-dimethoxy-quinoline-3-carbonitrile] | > 6.00 and 5.70 |  | 
N#Cc1cnc2ccc([N+](=O)[O-])cc2c1Nc1ccc(Br)c(Br)c1 [Example 377, 4-(3,4-Dibromophenylamino)-6-nitroquinoline-3-carbonitrile] | < 4.00 |  | 
N#Cc1cnc2ccc(N)cc2c1Nc1ccc(Br)c(Br)c1 [Example 379, 6-Amino-4-(3,4-dibromophenylamino)quinoline-3-carbonitrile] | 4.40 |  | 
CCC(=O)Nc1ccc2ncc(C#N)c(Nc3cccc(Br)c3)c2c1 [Example 381, N-[4-(3-Bromophenylamino)-3-cyanoquinolin-6-yl]propionamide] | < 4.00 |  | 
C/C=C/C(=O)Nc1ccc2ncc(C#N)c(Nc3cccc(Br)c3)c2c1 [Example 382, (E)-But-2-enoic Acid [4-(3-Bromophenylamino)-3-cyanoquinolin-6-yl]amide] | < 4.00 |  | 
N#Cc1cnc2ccc([N+](=O)[O-])cc2c1Nc1cccc(F)c1 [Example 384, 4-(3-Fluorophenylamino)-6-nitroquinoline-3-carbonitrile] | < 4.00 |  | 
N#Cc1cnc2ccc(N)cc2c1Nc1cccc(F)c1 [Example 385, 6-Amino-4-(3-fluorophenylamino)quinoline-3-carbonitrile] | 4.05 |  | 
CN(C)c1cccc(Nc2c(C#N)cnc3ccc([N+](=O)[O-])cc23)c1 [Example 386, 4-(3-Dimethylaminophenylamino)-6-nitroquinoline-3-carbonitrile] | < 4.00 |  | 
CN(C)c1ccc(Nc2c(C#N)cnc3ccc([N+](=O)[O-])cc23)cc1 [Example 387, 4-(4-Dimethylaminophenylamino)-6-nitroquinoline-3-carbonitrile] | < 4.00 |  | 
CN(C)c1cccc(Nc2c(C#N)cnc3ccc(N)cc23)c1 [Example 388, 6-Amino-4-(3-dimethylaminophenylamino)quinoline-3-carbonitrile] | 4.60 and 4.30 |  | 
CN(C)c1ccc(Nc2c(C#N)cnc3ccc(N)cc23)cc1 [Example 389, 6-Amino-4-(4-dimethylaminophenylamino)quinoline-3-carbonitrile] | < 4.00 |  | 
CC#CC(=O)Nc1ccc2ncc(C#N)c(Nc3cccc(F)c3)c2c1 [Example 390, But-2-ynoic Acid [4-(3-Fluorophenylamino)-3-cyanoquinolin-6-yl]amide] | < 4.00 |  | 
CC#CC(=O)Nc1ccc2ncc(C#N)c(Nc3ccc(N(C)C)cc3)c2c1 [Example 394, But-2-ynoic Acid [3-Cyano-4-(4-dimethylaminophenylamino)quinolin-6-yl]amide] | < 4.00 |  | 
COc1cccc(Nc2c(C#N)cnc3ccc(N(C)C)cc23)c1.Cl [Example 396, 6-Dimethylamino-4-(3-methoxyphenylamino)quinoline-3-carbonitrile Hydrochloride] | 4.30 |  | IC50 [1, 7]: 0.2 µg/mL; IC50 [2, 8]: 0.3 µg/mL; IC50 [3, 9]: 2.7 µg/mL
